Test [1] relates to peptide-pulsed C1R-A11. The experiment in a line: In vitro CTL induction, IFN-gamma ELISPOT assay (HLA-A*1101). The format is cell-based, human. The following applies: CTLs induced with peptide-pulsed DCs from HLA-A*1101-positive volunteers, day 21, vs peptide-pulsed C1R-A11, compared with unpulsed control. How it is done: C1R (C1R-A11) that stably expresses HLA-A*1101 was used as a stimulator cell. A cDNA encoding the open-reading frame of HLA-A*1101 was amplified by PCR and cloned into an expression vector. C1R cells were transfected with the expression vector, and then selected using G418 (Invitrogen) for two weeks. The G418-selected cells were seeded into wells containing G418-added culture medium in a 96-well plate, and further cultured for 30 days. The exogenous HLA-A*1101 expression in C1R cells was verified by flow cytometric analysis.
(§1) Monocyte-derived dendritic cells (DCs) were used as the antigen-presenting cell to induce a cytotoxic T lymphocyte (CTL) response against peptides presented on human leukocyte antigens (HLAs). As described in the other sections, DCs were generated in vitro (Nakahara S et al., Cancer Res 2003, 63(14): 4112-8). Specifically, peripheral-blood mononuclear cells isolated from healthy volunteers (HLA-A*1101-positive) with the Ficoll-Paque plus solution (Pharmacia) were separated by attaching to plastic tissue culture dishes (Becton Dickinson) and concentrated as a monocyte fraction. The monocyte-concentrated population was cultured in the presence of 1000 IU/ml granulocyte macrophage colony-stimulating factor (R&D System) and 1000 IU/ml interleukin(IL)-4 (R&D System) in an AIM-V medium (Invitrogen) containing 2% heat-inactivated autologous serum (AS). After seven days of culturing, the cytokine-induced DCs were pulsed with 20 micro-g/ml each of the synthesized peptides in an AIM-V medium at 37 degrees C. for three hours in the presence of 3 micro-g/ml beta 2-microglobulin. The generated cells appeared to express on their cell surface DC-associated molecules such as CD80, CD83, CD86 and HLA class II (data not shown). Next, these peptide-pulsed DCs were inactivated, by X-ray irradiation (20 Gy), and mixed in a 1:20 ratio with autologous CD8^+ T cells obtained by positive selection using the CD8 Positive Isolation Kit (Dynal). These culture products were seeded in a 48-well plate (Corning). Each well was made to contain 1.5×10^4 peptide-pulsed DCs, 3×10^5 CD8^+ T cells and 10 ng/ml IL-7 (R&D System) in 0.5 ml of the AIM-V/2% AS medium. Three days later, these culture products were added with a final concentration of 20 IU/ml IL-2 (CHIRON). On day 7 and day 14, T cells were further stimulated with peptide-pulsed autologous DCs. The DCs were prepared every time by the same method as above. On day 21, after the third peptide stimulation, CTLs were examined against the peptide-pulsed C1R-A11 by a human interferon (IFN)-gamma enzyme-linked immunospot (ELISPOT) assay (Tanaka H et al., Br J Cancer 2001, 84(1): 94-9; Umano Y et al., Br J Cancer 2001, 84(8): 1052-7; Uchida N et al., Clin Cancer Res 2004, 10(24): 8577-86; Suda T et al., Cancer Sci 2006, 97(5): 411-9; Watanabe T et al., Cancer Sci 2005, 96(8): 498-506).
(§2) Specifically, peptide-pulsed C1R-A11 (1×10^4 cells/well) was prepared as the stimulator cell. The induced CTLs, i.e., CTL lines and CTL clones, were used as the responder cell. The IFN-gamma ELISPOT assay and IFN-gamma ELISA were performed according to the manufacturer's manual.

Test [2] deals with peptide-pulsed C1R-A11. The experiment in a line: IFN-gamma ELISA of CTL lines and CTL clones (HLA-A*1101). The format is cell-based, human. How it is done:
(§3) CTLs were propagated in culture using methods similar to those disclosed by Riddell et al. (Walter E A et al., N Engl J Med 1995, 333(16): 1038-44; Riddell S R et al., Nat Med 1996, 2(2): 216-23). The CTLs were co-cultured in a total of 25 ml AIM-V medium containing 5% AS (AIM-V/5% AS) and 40 ng/ml anti-CD3 antibody with two types of Mitomycin C-treated human B lymphoblastoid cell lines at 5×10^6 cells/flask. One day after beginning of the culturing, 120 IU/ml IL-2 was added to the culture. On days 5, 8 and 11, a fresh AIM-V/5% AS medium containing 30 IU/ml IL-2 was added to the culture (Tanaka H et al., Br J Cancer 2001, 84(1): 94-9; Umano Y et al., Br J Cancer 2001, 84(8): 1052-7; Uchida N et al., Clin Cancer Res 2004, 10(24): 8577-86; Suda T et al., Cancer Sci 2006, 97(5): 411-9; Watanabe T et al., Cancer Sci 2005, 96(8): 498-506).
(§4) Dilution of CTLs was carried out to make 0.3, 1 and 3 cells/well in 96 round-bottomed microtiter plates (Nalge Nunc International). The CTLs were co-cultured with two types of Mitomycin C-treated human B lymphoblastoid cell lines at 1×10^4 cells/well in a total of 150 micro-1/well AIM-V/5% AS medium with 30 ng/ml anti-CD3 antibody and 125 IU/ml IL-2. Ten days later, IL-2 was added to the medium at 50 micro-1/well to reach a final concentration of 125 IU/ml. On day 14, the CTL activity was tested, and the CTL clones were propagated using the same method as described above (Uchida N et al., Clin Cancer Res 2004, 10(24): 8577-86; Suda T et al., Cancer Sci 2006, 97(5): 411-9; Watanabe T et al., Cancer Sci 2005, 96(8): 498-506).
as §2
(ELISA stands for enzyme-linked immunosorbent assay.)

For test [3], the system named is peptide-pulsed C1R-A33. The experiment in a line: In vitro CTL induction, IFN-gamma ELISPOT assay (HLA-A*3303). In kind it is cell-based, human. The note with it: CTLs induced with peptide-pulsed DCs from HLA-A*3303-positive volunteers; day 21; vs peptide-pulsed C1R-A33, compared with unpulsed control. How it is done:
C1R (C1R-A33) that stably expresses HLA-A*3303 was used as a stimulator cell. A cDNA encoding the open-reading frame of HLA-A*3303 was amplified by PCR and cloned into an expression vector. C1R cells were transfected with the expression vector, and then selected using G418 (Invitrogen) for two weeks. The G418-selected cells were seeded into wells containing G418-added culture medium in a 96-well plate, and further cultured for 30 days. The exogenous HLA-A*3303 expression in C1R cells was verified by flow cytometric analysis.
as §1, with “volunteers (HLA-A*3303-positive)” for “volunteers (HLA-A*1101-positive)”, “were inactivated” for “were inactivated,”, “peptide-pulsed C1R-A33 cell” for “peptide-pulsed C1R-A11”, “Y et.” for “Y et”
(§5) Specifically, peptide-pulsed C1R-A33 (1×10^4 cells/well) was prepared as the stimulator cell. The induced CTLs, i.e., CTL lines and CTL clones, were used as the responder cell. The IFN-gamma ELISPOT assay and IFN-gamma ELISA were performed according to the manufacturer's manual.

The test system of test [4] is peptide-pulsed C1R-A33. The experiment in a line: IFN-gamma ELISA of CTL lines and CTL clones (HLA-A*3303). In kind it is cell-based, human. How it is done:
as §3, §4, §5

The test system of test [5] is COS7 cells transfected with both KOC1 and HLA-A*3303. The experiment in a line: Specific CTL activity against target cells expressing KOC1 and HLA-A*3303. The format is cell-based, African green monkey. The following applies: listed as KOC1-A33-9-286. How it is done:
as §5
A cDNA encoding the open-reading frame of a target gene or HLA-A*3303 was amplified by PCR. The PCR-amplified product was cloned into an expression vector. Either or both of the target gene-expressing vector and the HLA-A*3303-expressing vector were transfected into […], which is a cell line negative for the target gene and HLA, using Lipofectamine 2000 (Invitrogen) following the manufacturer's recommended protocol. Two days after transfection, the transfected cells were harvested using versene (Invitrogen), and used as the target cell for CTL activity assay (5×10^4 cells/well).
The CTL lines and CTL clones established against KOC1-A33-9-485 (SEQ ID NO: 64) (a), KOC1-A33-9-286 (SEQ ID NO: 67) (b), and KOC1-A33-10-542 (SEQ ID NO: 77) (c) were investigated for their ability to recognize target cells expressing KOC1 and the HLA-A*3303 molecule. COS7 cells transfected with both full-length KOC1 and the HLA-A*3303 gene (a specific model of target cells expressing KOC1 and the HLA-A*3303 gene) were prepared as the target cell. COS7 cells transfected with either full-length KOC1 or HLA-A*3303 were prepared as the control.

We go through three sequences from US10576102B2, “KOC1-derived peptide and vaccine including same” (ONCOTHERAPY SCIENCE, INC., priority 2014, dated 2020).

Entries after “also recorded” stand apart in the source; their conditions may differ.

“KSILEIMHK (a peptide derived from KOC1) [SEQ ID NO: 1]”: the “peptide-specific CTL activity (IFN-gamma production), ELISPOT” value (from here on “peptide-specific CTL activity”) in test [1] (listed as KOC1-A11-9-258) is “no specific IFN-gamma production; also recorded: specific IFN-gamma production was not observed”.
On to “LSVGAIIGK (a peptide derived from KOC1) [SEQ ID NO: 5]”, for which, in test [1], the “peptide-specific CTL activity” value is listed as “potent IFN-gamma production”. Besides, the “IFN-gamma production of CTL clones, ELISA” value in test [2] (CTL clones by limiting dilution, peptide-pulsed C1R-A11, listed as KOC1-A11-9-415) is listed as “Potent IFN-gamma production”. In addition, the “IFN-gamma production of CTL lines, ELISA” value in test [2] (CTL lines, target cells pulsed with the peptide vs not pulsed, C1R-A11) is recorded as “potent IFN-gamma production”.
“NFVGRLIGK (a peptide derived from KOC1) [SEQ ID NO: 67]”: in test [3], the “peptide-specific CTL activity” value is “potent IFN-gamma production”. Also, the “IFN-gamma production of CTL clones, ELISA” value in test [4] (CTL clones by limiting dilution, peptide-pulsed C1R-A33, listed as KOC1-A33-9-286) is on record as “Potent IFN-gamma production”. Moreover, the “IFN-gamma production of CTL lines, ELISA” value in test [4] (CTL lines, target cells pulsed with the peptide vs not pulsed, C1R-A33) is “potent IFN-gamma production”. For the same sequence, the “specific CTL activity of CTL clones against target cells expressing KOC1 and HLA-A*3303” value in test [5] (COS7 transfected with both full-length KOC1 and HLA-A*3303) is reported as “specific CTL activity; also recorded: potent CTL activities”. In addition, in test [5] (COS7 transfected with either full-length KOC1 or HLA-A*3303), the “specific CTL activity of CTL clones against control cells” value is on record as “a significant specific CTL activity was not shown; also recorded: a significant specific CTL activity was not detected”.
